The source of these data is US20210207079A1, “PROCESS FOR PRODUCING CELL CULTURE MEDIA” (Merck Patent GmbH, priority 2015, published 2021).

Where two headings read alike, the source gives them in different places.

For series [1] the following is noted: cited from earlier work.
The conditions of series [2]: Cellvento CHO 200, text.
The conditions of series [3]: in water at 25° C.; cited from earlier work.

Consider `[Ca+2].[Cl-].[Cl-]` [Calcium Chloride anhydrous], for which, in series [1] (at 20° C.), the “Solubility (water) PubChem Database” value is reported as 745 g/l at.

Regarding `O=C[C@@H](O)[C@@H](O)[C@H](O)[C@H](O)CO` [D(+)-Mannose], the “Solubility (water) PubChem Database” value in series [1] (at 17° C.) is given as 713 g/L bei.

Take `O=C(CO)[C@@H](O)[C@H](O)[C@H](O)CO` [D(−)-FRUCTOSE]: in series [1] (at 25° C.), the “Solubility (water) PubChem Database” value is given as 200 g/100 ml.

On to `C[C@H](N)C(=O)O` [L-ALANINE], for which the “Solubility (water) PubChem Database” value in series [1] (at 25° C.) is given as 164 g/l water.

As to `N[C@@H](CSSC[C@H](N)C(=O)O)C(=O)O` [L-Cystine, L-cystine], in series [2], the “Maximal concentration in Cellvento CHO 200 at which the medium can still be completely dissolved in water” value is on record as “below 0.1 g/L”. In addition, the Solubility entry in series [3] is recorded as “nearly insoluble”.

`Cl.NCCCC[C@H](N)C(=O)O` [L-LYSINE MONOHYDROCHLORIDE]: in series [1] (at 25° C.), the “Solubility (water) PubChem Database” value was more than 100 g/100 g/100 ml.

On to `CSCC[C@H](N)C(=O)O` [L-Methionine], for which the “Solubility (water) PubChem Database” value in series [1] (at 25° C.) is given as 56.6 g/L water g/l.

With `[Cl-].[K+]` [Potassium chloride], the “Solubility (water) PubChem Database” value in series [1] (at 25° C.) was 35.5/100 g /100 g water.
